Reference: paper PMC12730333 (Biology, 2025)
Read-outs that look alike come from different tables or passages of the source. Marks after values point to notes of the source that are not given here.

Tests used:
[1] = tested on: HepG2 cells; parameters: method as in Araújo et al. 120; details: ref Araújo et al. 120; read-out: cytotoxic concentration (compared with CC50 in HepG2); cited from earlier work
[2] = tested on: promastigote forms of Leishmania amazonensis PH8 strain; test: Leishmanicidal activity assay on promastigotes (Alamar Blue, 24 h); format: cell-based; details: 10^6 parasites/mL
Procedure: Promastigote forms of Leishmania amazonensis (IFLA/BR/1967/PH8) were obtained from the Instituto Oswaldo Cruz Leishmania collection (CLIOC/Fiocruz). These cultures were maintained in Schneider’s Insect Medium, supplemented with 20% FBS and 1 μL/mL of Pen/Str at 26 °C. In vitro passages were conducted weekly, with promastigotes harvested during the late logarithmic phase for experiments on the 5th day of growth (Figure S1A).
MT was employed as the reference drug.

[3] = tested on: L929 cells; test: Cytotoxicity assay (Alamar Blue, 24 h) on L929 fibroblasts; format: cell-based, murine; details: for CC50: 0.5 × 10^5 cells/well
Procedure: (§1) HepG2 cells (human hepatocellular carcinoma), VERO cells (African green monkey kidney), and J774.G8 macrophages (murine reticulosarcoma) were maintained in DMEM medium, supplemented with 10% FBS, 1% Pen/Str at 37 °C and 5% CO2 [70, 71]. For the cultivation of L929 fibroblasts (murine fibrosarcoma), RPMI 1640 medium without phenol red, supplemented with 2 mM L-glutamine, 10% FBS, and 1% Pen/Str, was used and maintained under the same conditions of temperature and CO2 as above.
(§2) J774.G8, VERO (10^5 cells/well), HepG2, L929 (0.5 × 10^5 cells/well) cells, and MPMs (3 × 10^5 cells/well) were centrifuged, resuspended in medium, plated in 96-well microplates, and incubated for 24 h under cultivation conditions. Subsequently, they were exposed to different concentrations of the compounds, serially diluted in medium to a final volume of 100 µL/well, and incubated for 24 h at 37 °C and 5% CO2. Cell viability was then assessed using the AB, and data were acquired by spectrophotometry. […] Untreated cells were used as negative controls, and cells exposed to the reference compound (MT) were used as positive controls. The Selectivity Index (SI) was calculated using the ratio SI = CC50 (mammalian cells)/IC50 (promastigote or amastigote forms of L. amazonensis).

[4] = tested on: HepG2 cells; test: Cytotoxicity assay (Alamar Blue, 24 h) on HepG2 cells; format: cell-based, human; details: 0.5 × 10^5 cells/well
Procedure: as §1, §2

[5] = tested on: VERO cells; test: Cytotoxicity assay (Alamar Blue, 24 h) on VERO cells; format: cell-based, African green monkey; details: for CC50: 10^5 cells/well
Procedure: as §1, §2

[6] = tested on: J774.G8 cells; test: Cytotoxicity assay (Alamar Blue, 24 h) on J774.G8 macrophages; format: cell-based, murine; details: 10^5 cells/well, read-out: CC50 J744.G8
Procedure: as §1, §2

[7] = tested on: murine peritoneal macrophages—MPMs; test: Cytotoxicity assay (Alamar Blue, 24 h) on murine peritoneal macrophages; format: cell-based, Swiss Webster mice; details: 3 × 10^5 cells/well
Procedure: (§3) Murine peritoneal macrophages—MPMs (primary cells)—were isolated from male Swiss Webster mice stimulated with 1 mL of 3% Brewer’s thioglycollate medium, administered intraperitoneally. After 96 h, the animals were euthanized, and the MPMs were collected by peritoneal lavage with approximately 10 mL of RPMI 1640 medium. The cell suspension was centrifuged at 382× g for 10 min, and the pellet was resuspended in medium supplemented with 5% FBS, 1% Pen/Str, and 2 mM L-glutamine. All cell cultures were maintained at 37 °C and 5% CO2 [73]. For the experiments, all cell types were cultured until confluency.
as §2

[8] = tested on: promastigote forms of Leishmania amazonensis PH8 strain; test: ROS production by flow cytometry, H2DCFDA, promastigotes; format: cell-based; details: exposed to IC50 (AA 10 µM), 24 h
[9] = tested on: ex vivo amastigote forms of L. amazonensis LTB0016 strain; test: ROS production by flow cytometry, H2DCFDA, ex vivo amastigotes; format: cell-based, Leishmania amazonensis; details: exposed to IC50 (AA 10 µM), 24 h; for VIROS, Ex Vivo Amastigotes High Population / VIROS, Ex Vivo Amastigotes Low Population: MT/MC
[10] = tested on: Leishmania amazonensis promastigote forms (PH8 strain); details: exposed to IC50, 24–168 h
Procedure: (§4) Promastigotes were kept at 26 °C, whereas amastigotes were kept at 32 °C. After 24 h, parasite viability was assessed using the AB colorimetric method, and the data were analyzed using a spectrophotometer as previously described [74]. […] Wells with medium and without parasites were used as blanks, and wells with medium and untreated parasites were used as negative controls. MT was employed as the reference drug.

[11] = tested on: ex vivo amastigote forms of L. amazonensis LTB0016 strain; test: Leishmanicidal activity assay on ex vivo amastigotes (Alamar Blue, 24 h); details: for inhibitory action compared with MT: doses < 0.10 μM; for IC50: read-out: IC50 Ama., 24 h; for efficacy compared with MT: concentrations below 0.28 μM
From the text: Ex vivo amastigote forms of L. amazonensis (MHOM/BR/77/LTB0016) were harvested and purified from lesions of male BALB/c mice. For this, a suspension containing 10^6 amastigotes was inoculated subcutaneously into the intraplantar region of the hind paw. After 30 days, the animals were euthanized, and their paws were excised and rinsed in 70% ethanol. The epidermis and necrotic tissues were mechanically dissociated. Subsequently, the paws were placed in Petri dishes containing RPMI 1640 medium supplemented with 5% FBS and 2% Pen/Str. […] The supernatant was transferred to another tube, homogenized with a syringe, and centrifuged at 764× g for another 15 min. The supernatant was discarded, and the pellet was resuspended in RPMI 1640 medium [69].
as §4

[12] = tested on: promastigote forms of Leishmania amazonensis PH8 strain; test: Mitochondrial membrane potential (ΔΨm) by flow cytometry, TMRE, promastigotes; details: exposed to IC50, 24 h; for VIΔΨm, Promastigotes High Population / VIΔΨm, Promastigotes Low Population: (MT − MC)/MC; for VIΔΨm, Promastigotes Low Population: negative = depolarization
[13] = tested on: ex vivo amastigote forms of L. amazonensis LTB0016 strain; test: Mitochondrial membrane potential (ΔΨm) by flow cytometry, TMRE, ex vivo amastigotes; details: for TMRE MFI, ex vivo Amastigotes High Population / TMRE MFI, ex vivo Amastigotes Low Population / VIΔΨm, ex vivo Amastigotes High Population / VIΔΨm, ex vivo Amastigotes Low Population: exposed to IC50, 24 h; for VIΔΨm, ex vivo Amastigotes High Population / VIΔΨm, ex vivo Amastigotes Low Population: (MT − MC)/MC
[14] = Cytotoxicity assay (Alamar Blue, 24 h) on L929 fibroblasts; format: cell-based, murine; details: mouse, L929 fibroblasts; for CC50 at 24 h: 0.5 × 10^5 cells/well
Procedure: as §1, §2

[15] = Cytotoxicity assay (Alamar Blue, 24 h) on HepG2 cells; format: cell-based, human; details: human, HepG2 cells, 0.5 × 10^5 cells/well
Procedure: as §1, §2

[16] = Cytotoxicity assay (Alamar Blue, 24 h) on VERO cells; format: cell-based, African green monkey; details: African green monkey, VERO cells, 10^5 cells/well
Procedure: as §1, §2

[17] = Cytotoxicity assay (Alamar Blue, 24 h) on J774.G8 macrophages; format: cell-based, murine; details: mouse, J774.G8 macrophages, 10^5 cells/well, read-out: CC50 J744.G8
Procedure: as §1, §2

[18] = Cytotoxicity assay (Alamar Blue, 24 h) on murine peritoneal macrophages; format: cell-based, Swiss Webster mice; details: male, Swiss Webster, mouse, murine peritoneal macrophages (MPMs, primary cells); for CC50 at 24 h: 3 × 10^5 cells/well
Procedure: as §3, §2

[19] = ex vivo amastigotes, 10^6 parasites/mL

Compound	IC50 [2]	CC50 [3]	CC50 [4]	CC50 [5]	H2DCFDA MFI, Promastigotes High Population [8]	H2DCFDA MFI, Promastigotes Low Population [8]	H2DCFDA MFI, Ex Vivo Amastigotes High Population [9]	H2DCFDA MFI, Ex Vivo Amastigotes Low Population [9]	VIROS, Ex Vivo Amastigotes High Population [9]	VIROS, Ex Vivo Amastigotes Low Population [9]	time from which proliferation was significantly (p < 0.05) reduced compared to MT [10]	inhibitory action compared with MT ([11]; ex vivo amastigotes)	TMRE MFI, Promastigotes High Population [12]	TMRE MFI, Promastigotes Low Population [12]	VIΔΨm, Promastigotes High Population [12]	VIΔΨm, Promastigotes Low Population [12]	TMRE MFI, ex vivo Amastigotes High Population [13]	TMRE MFI, ex vivo Amastigotes Low Population [13]	VIΔΨm, ex vivo Amastigotes High Population [13]	VIΔΨm, ex vivo Amastigotes Low Population [13]	also measured
C[C@@H]1[C@H](O)[C@@H](C)/C=C/C=C/C=C/C=C/C=C/C=C/C=C/[C@H](O[C@@H]2O[C@H](C)[C@@H](O)[C@H](N)[C@@H]2O)C[C@@H]2O[C@](O)(C[C@@H](O)C[C@@H](O)[C@H](O)CC[C@@H](O)C[C@@H](O)CC(=O)O[C@H]1C)C[C@H](O)[C@H]2C(=O)O [Amphotericin B]																					CC50 [1]: 35.2 µM
CCNc1cc2[s+]c3cc(NCC)c(C)cc3nc2cc1C.F[P-](F)(F)(F)(F)F.F[P-](F)(F)(F)(F)F.F[P-](F)(F)(F)(F)F.F[P-](F)(F)(F)(F)F.N#[O+].[Ru+2].c1ccc(-c2ccccn2)nc1.c1ccc(-c2ccccn2)nc1 [NMB-B, new methylene blue B]	5.48 µM	270 ± 8.48 µM	34.2 ± 7.31 µM	248 ± 32.9 µM	2,639,177.00 **	39,191.97	131,896.27	2116.87	0.85 ± 0.49	1.11 ± 0.48	≥ 48 h	more inhibitory action	74,562.13	4070.50	0.27 ± 0.16	−0.13 ± 0.09	410,112.30	4174.80	−0.59 ± 0.21	−0.31 ± 0.03	viability of L929 cells ([3]; lower concentrations (37–100 μM)): > 50%; CC50 [6]: 130 ± 7.35 µM; CC50 [7]: 65.9 ± 1.69 µM; IC50 [11, 19]: 3.16 ± 0.37 µM; decrease of ΔΨm considering both subpopulations ([13]; ex vivo amastigotes, LP plus HP, IC50, 24 h): 90%
CCNc1cc2[s+]c3cc(NCC)c(C)cc3nc2cc1C [NMB, new methylene blue]	5.42 µM		71.6 ± 3.15 µM		1,512,521.00 *	31,489.80	131,669.43	2940.57	0.84 ± 0.51	1.62 ± 0.90	≥ 72 h	more inhibitory action	65,590.87	4095.05	0.11 ± 0.08	−0.14 ± 0.20	277,557.80 *	3770.37	−0.43 ± 0.20	−0.27 ± 0.06	IC50 ([2]; Leishmania amazonensis): < 5.5 µM; CC50 at 24 h [14]: 280.2 ± 2.19 µM; viability at 24 h ([14]; lower concentrations (37–100 μM), read-out: viability of L929 cells): > 50%; CC50 at 24 h [15]: > 70 µM; CC50 at 24 h [16]: 44.7 ± 3.4 µM; CC50 at 24 h [17]: 68.5 ± 2.12 µM; CC50 at 24 h [18]: 31.3 ± 5.72 µM; IC50 ([11]; Leishmania amazonensis): 2.66 ± 0.95 µM; efficacy compared with MT ([11]; ex vivo amastigotes): surpassed the efficacy of MT; loss of potential (ΔΨm) in HP ex vivo amastigotes / mitochondrial depolarization ([13]; IC50, 24 h): up to 61%
CCCCCCCCCCCCCCCCOP(=O)([O-])OCC[N+](C)(C)C [Miltefosine, miltefosine, reference compound]																					IC50 ([2]; Leishmania amazonensis): 23.2 ± 2.55 µM; CC50 at 24 h [14]: 113 ± 18.2 µM; CC50 at 24 h [15]: 181 ± 11.3 µM; CC50 at 24 h [16]: 168 ± 2.75 µM; viability of VERO cells ([5]; concentrations ≥ 300 μM): eliminated the viability; CC50 at 24 h [17]: 156 ± 8.48 µM; CC50 at 24 h [18]: 103 ± 4.77 µM; viability at 24 h ([18]; exposures up to 70 μM): > 50%; IC50 ([11]; Leishmania amazonensis): 0.97 ± 0.4 µM
CCNc1cc2[s+]c3cc(NCC)c(C)cc3nc2cc1C.F[P-](F)(F)(F)(F)F.F[P-](F)(F)(F)(F)F.F[P-](F)(F)(F)(F)F.F[P-](F)(F)(F)(F)F.N#[O+].[Ru+2].c1cnc2c(c1)ccc1cccnc12.c1cnc2c(c1)ccc1cccnc12 [NMB-P, new methylene blue P]	2.84 µM	150 ± 12 µM	35.1 ± 2.08 µM	240 ± 27.6 µM	2,325,902.50 **	34,607.80	140,291.57	3063.17	0.90 ± 0.45	1.27 ± 0.45	≥ 96 h	more inhibitory action	86,029.23	3359.03 *	0.49 ± 0.36	−0.28 ± 0.03	642,051.43	7215.47	0.39 ± 0.13	0.21 ± 0.04	CC50 [6]: 69.8 ± 10.4 µM; CC50 [7]: 71.6 ± 1.85 µM; efficacy compared with MT ([11]; ex vivo amastigotes): surpassed the efficacy of MT; IC50 [11, 19]: 0.46 ± 0.34 µM
CCCCCC[C@H]1C(=O)O[C@H](C)[C@H](NC(=O)c2cccc(NC=O)c2O)C(=O)O[C@@H](C)[C@@H]1OC(=O)CC(C)C [AA, Antimycin A, reference compound]					890,705.80	19,775.40	143,227.25	3011.23	0.60 ± 0.53	1.14 ± 0.38											VIROS, Promastigotes Low Population ([8]; MT/MC): 0.52 ± 0.13; VIROS, Promastigotes High Population ([8]; MT/MC (fold of control)): 2.07 ± 0.23
